Assay results published in ChEMBL document CHEMBL3272079, “Synthesis and preliminary pharmacological activity of aminoalkoxy isosteres of glycolate ester anticholinergics” (J Med Chem, 1977).
Structures can show the parent of a compound that is named as a salt. The source made the active and inactive calls. The calls are words filed in the database; no cut-off is given here.

Columns and labels:
[1] = organism: Rattus norvegicus; test: animal or person; assay type: functional; conditions: Wistar, ip, route intraperitoneal
Description: Anticataleptic activity in albino Wistar rat assessed as inhibition of perphenazine-induced catatonia at 2 mg/kg, ip preincubated for 15 mins followed by perphenazine challenge measured at 1 hr relative to control

[2] = organism: Rattus norvegicus; test: animal or person; assay type: functional; conditions: Wistar, ip, route intraperitoneal; remark: listed apart in the source
Description: Anticataleptic activity in albino Wistar rat assessed as inhibition of perphenazine-induced catatonia at 2 mg/kg, ip preincubated for 15 mins followed by perphenazine challenge measured at 0.5 hrs relative to control

[3] = organism: Rattus norvegicus; test: animal or person; assay type: functional; conditions: Wistar, ip, route intraperitoneal; remark: listed apart in the source
Description: Anticataleptic activity in albino Wistar rat assessed as inhibition of perphenazine-induced catatonia at 2 mg/kg, ip preincubated for 15 mins followed by perphenazine challenge measured at 2 hrs relative to control

[4] = organism: Rattus norvegicus; test: animal or person; assay type: functional; conditions: Wistar, ip, route intraperitoneal; remark: listed apart in the source
Description: Anticataleptic activity in albino Wistar rat assessed as inhibition of perphenazine-induced catatonia at 2 mg/kg, ip preincubated for 15 mins followed by perphenazine challenge measured at 3 hrs relative to control

[5] = Octanol-phosphate buffer partition coefficient, Kp of the compound at pH 7.4; assay type: physicochemical
[6] = organism: Rattus norvegicus; conditions: Wistar, Jejunum;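 on pD'2: muscarinic receptor antagonism measured as block of acetylcholine-evoked contraction in isolated jejunum, tissue exposed to test compound for 2 min before the acetylcholine challenge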
Description: Antagonist activity at muscarinic acetylcholine receptor in Wistar rat jejunum assessed as inhibition of acetylcholine-induced contraction preincubated for 2 mins followed by acetylcholine challenge

[7] = system: Oryctolagus cuniculus; test: Central dopaminergic activity in New Zealand rabbit assessed as change in colonic temperature at 5 mg/kg, iv measured every 15 mins for 2 hrs by thermistor probe attached telethermometric analysis; assay type: functional, organism-based; design: dose 5 mg/kg

SMILES | inhibition in vivo at 2 mg/kg [1] | inhibition in vivo at 2 mg/kg [2] | inhibition in vivo at 2 mg/kg [3] | inhibition in vivo at 2 mg/kg [4] | Kp [5] | pD'2 [6] | Activity [7]
CN1CCC(OCC(O)(c2ccccc2)c2ccccc2)CC1 [listing 1 of 3 here] | 37% | 80% | 7% | 0% |  |  | 
CCN(CC)CCOCC(O)(c1ccccc1)c1ccccc1 [listing 1 of 3 here] |  |  |  |  | 5.6 |  | 
CC[N+]1(C)CCCC(OCC(O)(c2ccccc2)c2ccccc2)C1 (configuration not stated) |  |  |  |  |  | 5 | 
C[N+]1(C)CCCC(OCC(O)(c2ccccc2)c2ccccc2)C1 (configuration not stated) |  |  |  |  |  | 5.68 | 
C[N+]12CCC(CC1)C(OCC(O)(c1ccccc1)c1ccccc1)C2 (configuration not stated) |  |  |  |  |  | 6.18 | 
CN1CCCC(OCC(O)(c2ccccc2)c2ccccc2)C1 (configuration not stated) | 67% | 92% | 54% | 17% |  | 4.9 | 
CC[N+](C)(CC)CCOCC(O)(c1ccccc1)c1ccccc1 |  |  |  |  |  | 6.92 | 
CN1CCC(OCC(O)(c2ccccc2)c2ccccc2)CC1 [listing 2 of 3 here] |  |  |  |  | 3.1 |  | 
CN1CCC(OCC(O)(c2ccccc2)c2ccccc2)C1 (configuration not stated) | 21% | 50% | 8% | 0% |  | 5.58 | 
OC(COC1CN2CCC1CC2)(c1ccccc1)c1ccccc1 (configuration not stated) | 85% | 96% | 56% | 48% |  | 6.58 | inactive
CN(C)CCOCC(O)(c1ccccc1)c1ccccc1 | 21% | 75% | 21% | 8% |  | 4.68 | 
CN1[C@@H]2CC[C@H]1C[C@H](OC(=O)C(CO)c1ccccc1)C2 (some centres not stated) | 56% | 87% | 30% | 27% |  | 7.3 | 
CCN(CC)CCOCC(O)(c1ccccc1)c1ccccc1 [listing 2 of 3 here] | 0% | 38% | 0% | 0% |  |  | 
C=CCN(C)CCOCC(O)(c1ccccc1)c1ccccc1 | 25% | 79% | 17% | 0% |  | 4.09 | 
CN1[C@@H]2C[C@@H](OC(=O)[C@H](CO)c3ccccc3)C[C@H]1[C@@H]1O[C@@H]12 [SCOPOLAMINE HYDROBROMIDE] | 96% | 96% | 83% | 71% |  | 5.31 | 
C=CCN(CC)CCOCC(O)(c1ccccc1)c1ccccc1 | 0% | 8% | 0% | 0% |  | 5.13 | 
CCN(CC)CCOCC(O)(c1ccccc1)c1ccccc1 [listing 3 of 3 here] |  |  |  |  |  | 4.92 | inactive
CN1CCC(OCC(O)(c2ccccc2)c2ccccc2)CC1 [listing 3 of 3 here] |  |  |  |  |  | 6.24 | 
CN(C)CCCOCC(O)(c1ccccc1)c1ccccc1 | 71% | 100% | 54% | 17% |  | 5.02 | 
C[N+](C)(C)CCOCC(O)(c1ccccc1)c1ccccc1 |  |  |  |  |  | 5.49 | 
C[N+]1(C)CCC(OCC(O)(c2ccccc2)c2ccccc2)CC1 |  |  |  |  |  | 7.26 | 
CCN(CC)CCOC(=O)C(O)(c1ccccc1)c1ccccc1.Cl |  |  |  |  | 0.26 |  | inactive
CCN1CCCC(OCC(O)(c2ccccc2)c2ccccc2)C1 (configuration not stated) | 0% | 12% | 0% | 0% |  | 4.95 | 
